Data taken from article PMC10857328, “Utilization of Biopolymer-Based Lutein Emulsion as an Effective Delivery System to Improve Lutein Bioavailability in Neonatal Rats” (Nutrients, 2024).

Assays:
[1] = Daily dosing studies: body and tissue weights, observable illness; format: in vivo, neonatal Sprague-Dawley rats; details: daily oral administration, 2 mg/kg, P5-P18, both daily dosing studies
Experimental: To determine the effects of daily consumption of CTA-stabilized lutein emulsion on tissue lutein status, two daily dosing studies were conducted. The procedures were approved by the Institutional Animal Care and Use Committee of the University of Alabama (Number: 21-02-4373, 4 February 2021). For daily dosing study 1 (Figure 1B), on P5, rat pups (n = 8–9/group) were randomly selected from the litters and received an oral dose of either free lutein (i.e., lutein ester dissolved in olive oil) or lutein emulsion both containing 2 mg/kg body weight of lutein. […] Dosing was repeated daily until P18. The dosage was determined from previous research in both rodent and human newborns and was also established as an Acceptable Daily Intake for lutein by the Joint Food and Agricultural Organization/World Health Organization. On P19, pups were euthanized. Rats are known to wean between P19 and P21 [47]. Blood from vena cava, liver, spleen, brain, eye, kidney, lung, white adipose tissue (WAT), and brown adipose tissue (BAT) were collected. Blood samples were centrifuged to obtain serum. Serum and collected tissues were frozen at −80 °C until analysis.
To mimic the human dietary intake of lutein, daily dosing study 2 was conducted (Figure 1C). […]

[2] = Acute dosing study: tissue lutein profiles; format: in vivo, neonatal Sprague-Dawley rats; details: single oral dose, 10 mg/kg, free lutein or emulsion
Experimental: To determine the bioavailability of lutein in neonatal Sprague-Dawley rats, an acute dosing study was conducted. The procedure was approved by the Institutional Animal Care and Use Committee of the University of Alabama (Number: 21-08-4864, 23 September 2021). On postnatal day 10 (P10), neonatal rats were randomly selected from litters and received a single dose of either free lutein (i.e., lutein ester dissolved in olive oil) or lutein emulsion, both containing 10 mg/kg body weight of lutein. The dose was administered to the pup’s mouth via a pipette. The concentration of lutein ester in the oil phase was 0.004 g/mL. The lutein dosage was selected based on our pilot study and previous studies. It is higher than the dosage used in human newborns but is considered acceptable and safe to be used in pharmacokinetic studies in rodent models. At 0.5 h, 1 h, 2 h, 4 h, 6 h, 12 h, and 24 h after dosing, pups (n = 3/time point/group) were euthanized, and blood, liver, spleen, brain, and eye were collected. Serum was obtained by centrifuging blood samples and tissues were stored at −80 °C until time of analysis. A group of rat pups (n = 3) not receiving treatments were used to measure the baseline lutein concentrations. Throughout the study, maternal rats consumed a purified diet with no lutein (D19120501, Research Diets Inc, New Brunswick, NJ, USA) (Table 1).
Serum and tissue lutein concentration was determined using an ultra-performance liquid chromatography (UPLC) system (Waters, Milford, MA, USA) equipped with a photo-diode array detector (PDA)/MS/MS, according to our well-established methods with slight modification. As for the serum, 100 μL of the sample was incubated with 2 mL of 100% ethanol at room temperature for an hour for lipid extraction. For the tissues, ~0.1 g of the sample was weighed, homogenized, and incubated with 2 mL of 100% ethanol at room temperature for an hour. An amount of 1 mL of 5% (w/v) potassium hydroxide was added to the sample and incubated in a water bath at 60 °C for 45 min for saponification. […]

Structure (SMILES): CC1=C[C@H](O)CC(C)(C)[C@H]1/C=C/C(C)=C/C=C/C(C)=C/C=C/C=C(C)/C=C/C=C(C)/C=C/C1=C(C)C[C@@H](O)CC1(C)C [lutein, Lutein]
- Observable illness in the pups [1]: no observable illness
- Earliest time point for lutein to be detectable in brain [2]: 12 h
- Earliest time point for lutein to be detectable in eye [2]: 24 h
- Earliest time point for lutein to be detectable in spleen [2]: 6 h
